Assays:
[1] = target: T1, boron transporter (BOR1) BOR1-GFP fusion protein (Arabidopsis thaliana, UniProt Q8VYR7); test: structural (thermal) stability of solubilized BOR1-GFP by fluorescence-based size exclusion chromatography (FSEC); conditions: for structural stability of solubilized BOR1-GFP after heating (RFU, FSEC): heated at 40° C. for 10 minutes, 1 wt % compound
T1 construct: made in house; host or cells: Saccharomyces cerevisiae FGY217
Protocol: The ability of PSAs or PSEs to stabilize the structure of boron transporter (BOR1) was measured in an aqueous solution. That is, the BOR1 protein solubilized in each amphipathic compound was denatured by heating, and then structural stability of BOR1 was measured using fluorescence-based size exclusion chromatography (FSEC).
Specifically, Arabidopsis thaliana-derived BOR1 was expressed in the form of a fusion protein having a GFP tag at the C-terminus in Saccharomyces cerevisiae FGY217 cells. The cells were grown in an URA-medium supplemented with 0.1% glucose. 2% galactose was added to the cell culture to induce protein expression and the cells were cultured at 20° C. for 18 hours (see Drew, D. et al., Nat. Protoc. 2008, 3, 784-798.). After culture, the cells were harvested and used to obtain the cell membranes (see Leung, J. et al., Protein Expr. Purif. 2010, 72, 139-146.). Membranes containing BOR1-GFP fusion proteins were diluted to a final total protein concentration of 2.8 mg/mL in PBS (pH7.4) supplemented with 1 wt % DDM, 1 wt % PSAs (PSA-C9, PSA-C10 or PSA-C11) or 1 wt % PSEs (PSE-C9, PSE-C11 or PSE-C13). The diluted samples were incubated at 4° C. for 1 hour with gentle shaking, and insoluble substances were removed by centrifugation at 14,000 g for 1 hour at 4° C. Supernatants containing the dissolved protein samples were incubated for 10 minutes at the specified temperature (35, 40, 45 or 50° C.), and strongly agglutinated proteins were removed by centrifugation at 14,000 g for 10 minutes at 4° C. 200 μL aliquots were taken from the supernatant and injected into a Superose 6 10/300 column equilibrated with 20 mM Tris-HCl (pH 7.5), 150 mM NaCl and 0.03% DDM. Each elution fraction was collected from a retention volume of 6.4 mL (i.e., after 6.4 mL of solution had passed), and added to a well of a clear bottom 96-well plate at a volume of 200 μL. GFP fluorescence generated in each fraction was measured using an excitation wavelength of 470 nm and an emission wavelength of 512 nm.

[2] = test system: leucine transporter (LeuT); test: LeuT stability, [3H]-Leu binding by scintillation proximity assay (SPA); type: biochemical, Aquifex aeolicus; conditions: room temperature
Protocol: The ability of PSAs, PSEs or TPSs (TPS-A/E/ELs) to stabilize leucine transporter (LeuT), a membrane protein, was measured. LeuT purified by DDM was mixed with a solution containing each amphipathic compound, and the mixture was incubated at room temperature for 12 days. The activity of LeuT proteins was measured by scintillation proximity assay (SPA) using a ligand ([^3H]-Leu), and the concentration of PSAs, PSEs, TPSs or DDM was (a) CMC+0.04 wt %, or (b) CMC+0.2 wt %.
Specifically, LeuT stability measurement was performed in the following manner. According to the results of Example 6, PSA-C10, PSA-C11, PSE-C9, PSE-C11, and PSE-C13 were selected as the amphipathic compounds of PSAs and PSEs except for PSA-C9, and wild type leucine transporter (LeuT) was purified from Aquifex aeolicus using TPS-As, TPS-Es and TPS-EL, according to the method described in G. Deckert et al. (Nature 1998, 392, 353-358.). E. coli C41 (DE3) was transformed with a pET16b plasmid containing a gene construct encoding C-terminal 8×His-tagged LeuT, and thus LeuT was expressed in the form of a fusion protein having 8×His tags at the C-terminus in the transformed E. coli C41 (the expression plasmid was provided by Dr. E. Gouaux, Vollum Institute, Portland, Oreg., USA). Briefly, bacterial membranes containing LeuT were treated with 1.0 wt % DDM, and proteins were bound to Ni^2+-NTA resin (Life Technologies, Denmark). LeuT bound to the resin was eluted using a buffer solution containing 20 mM Tris-HCl (pH 8.0), 1 mM NaCl, 199 mM KCl, 0.05% DDM and 300 mM imidazole. Next, about 1.5 mg/mL of protein stock was diluted 10-fold in an equivalent buffer supplemented with TPS-As, TPS-Es, TPS-ELs, PSAs/PSEs (PSA-C10, PSA-C11, PSE-C9, PSE-C11 and PSE-C13) or DDM (control group) to a final concentration of CMC+0.04 wt % or CMC+0.2 wt % without DDM and imidazole. The protein samples were stored at room temperature and centrifuged at designated times. Protein activity was determined by measuring the degree of binding to [^3H]-Leu using scintillation proximity assay (SPA) (M. Quick et al., Proc. Natl, Acad. Sci. U.S.A. 2007, 104, 3603-3608.). Briefly, SPA was performed with 5 μL of each protein sample dissolved in a buffer containing 450 mM NaCl and each test compound. The SPA reaction was performed in the presence of 20 nM [^3H]-Leu and copper chelate (His-Tag) YSi beads (both were purchased from PerkinElmer, Denmark). The degree of binding to [^3H]-Leu was measured using a MicroBeta liquid scintillation counter (PerkinElmer).

| Compound | state of solubilized BOR1-GFP after heating ([1]; 35° C. for 10 minutes) | state of solubilized BOR1-GFP after heating ([1]; 40 or 45° C. for 10 minutes) | structural stability of solubilized BOR1-GFP after heating (RFU, FSEC) [1] | maintenance of LeuT activity during 12 days of incubation ([2]; CMC+0.04 wt %) | maintenance of LeuT activity during 12 days of incubation ([2]; CMC+0.2 wt %) | LeuT transporter activity retained after 12 days of incubation ([2]; CMC+0.2 wt %, 12 days) |
| --- | --- | --- | --- | --- | --- | --- |
| CCCCCCCCCCCCO[C@@H]1O[C@H](CO)[C@@H](O[C@H]2O[C@H](CO)[C@@H](O)[C@H](O)[C@H]2O)[C@H](O)[C@H]1O [DDM, n-dodecyl-β-D-maltopyranoside, reference compound] | retained the original state thereof | complete denaturation/aggregation occurred | RFUs were relatively low due to denaturation after heating | – | – | – |
| CCCCCCCCCCCC(CCCCCCCCCCC)CO[C@@H]1OC(CO[C@@H]2OC(CO)[C@@H](O)C(O)C2O)[C@@H](O[C@@H]2OC(CO)[C@@H](O)C(O)C2O)C(O[C@@H]2OC(CO)[C@@H](O)C(O)C2O)C1O[C@@H]1OC(CO)[C@@H](O)C(O)C1O (stereo partly shown) [PSA-C11] | – | – | remarkably improved as compared to DDM and PSA-C9 | – | – | – |
| CCCCCCCCCCCOCC(COCCCCCCCCCCC)O[C@@H]1OC(CO[C@@H]2OC(CO)[C@@H](O)C(O)C2O)[C@@H](O[C@@H]2OC(CO)[C@@H](O)C(O)C2O)C(O[C@@H]2OC(CO)[C@@H](O)C(O)C2O)C1O[C@@H]1OC(CO)[C@@H](O)C(O)C1O (stereo partly shown) [PSE-C11] | – | maintained monodispersibility | greatly improved compared to DDM | did not show any appreciable decrease in protein activity | completely preserved | 100% |
| CCCCCCCCCCCCCOCC(COCCCCCCCCCCCCC)O[C@@H]1OC(CO[C@@H]2OC(CO)[C@@H](O)C(O)C2O)[C@@H](O[C@@H]2OC(CO)[C@@H](O)C(O)C2O)C(O[C@@H]2OC(CO)[C@@H](O)C(O)C2O)C1O[C@@H]1OC(CO)[C@@H](O)C(O)C1O (stereo partly shown) [PSE-C13] | – | – | greatly improved compared to DDM | did not show any appreciable decrease in protein activity | – | – |
| CCCCCCCCOCC(COCCCCCCCC)(COCCCCCCCC)CO[C@@H]1OC(CO[C@@H]2OC(CO)[C@@H](O)C(O)C2O)[C@@H](O[C@@H]2OC(CO)[C@@H](O)C(O)C2O)C(O[C@@H]2OC(CO)[C@@H](O)C(O)C2O)C1O[C@@H]1OC(CO)[C@@H](O)C(O)C1O (stereo partly shown) [TPS-E8] | – | – | – | remained intact | completely preserved | – |

Source: patent US20190169218A1, “AMPHIPATHIC COMPOUND HAVING NOVEL PENTA-SACCHARIDE HYDROPHILIC GROUP AND USE THEREOF” (Industry-University Cooperation Foundation Hanyang …, priority 2016, published 2019)
